Target: human 11β-HSD1 (Homo sapiens, UniProt P28845)
Experiment: biochemical
Settings: for inhibition at 0.1 µM / inhibition at 0.111 µM: 1.5 h; for inhibition at 0.1 µM: read-out: Biological Test Example 2 Average % inhibition at 100 nm, at 100 nm; for IC50: Biological Test Example 2 IC50 Range, microsomes from CHO cells overexpressing human 11β-HSD1, SPA; for inhibition at 0.111 µM: read-out: Biological Test Example 2 Average % inhibition at 111 nm, at 111 nm
Protocol: All reactions are carried out at room temperature in 96 well clear flexible PET Microbeta plates (PerkinElmer). […] The reaction is stopped by adding 50 μl of the SPA beads suspension containing 10 μM 18β-glycyrrhetinic acid, 5 mg/ml protein A coated YSi SPA beads (GE Healthcare) and 3.3 μg/ml of anti-cortisol antibody (East Coast Biologics) in Superblock buffer (Bio-Rad). The plates are then shaken for 120 minutes at room temperature, and the SPA signal corresponding to [^3H]cortisol is measured on a Microbeta plate reader.

human 11β-HSD1, sequence (P28845 whole entry): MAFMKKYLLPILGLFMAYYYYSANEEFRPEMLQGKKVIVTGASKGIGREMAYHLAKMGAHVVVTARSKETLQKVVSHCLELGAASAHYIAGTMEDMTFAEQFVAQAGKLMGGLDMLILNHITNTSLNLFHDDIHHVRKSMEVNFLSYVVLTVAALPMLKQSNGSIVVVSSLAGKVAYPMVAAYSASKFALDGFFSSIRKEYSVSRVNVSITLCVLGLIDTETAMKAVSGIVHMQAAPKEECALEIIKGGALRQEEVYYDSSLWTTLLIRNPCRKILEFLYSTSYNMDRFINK

Compound | inhibition at 0.1 µM | IC50 | inhibition at 0.111 µM
CN(C)C(=O)c1cnc(N[C@@H]2CCN(C(=O)O[C@H]3C4CC5CC3C[C@](O)(C5)C4)C2)nc1 [Example 111, (R)-(trans-1-hydroxy-4-adamantyl) 3-(5-(dimethylcarbamoyl)pyrimidin-2-ylamino)pyrrolidine-1-carboxylate] | 33.5% | > 100 nM | –
N#Cc1ccc2nc(N[C@@H]3CCN(C(=O)O[C@H]4C5CC6CC4C[C@](O)(C6)C5)C3)sc2c1 [Example 94, (R)-(trans-1-hydroxy-4-adamantyl) 3-(6-cyanobenzo[d]thiazol-2-ylamino)pyrrolidine-1-carboxylate] | 90.8% | < 100 nM | –
CC(C)(C)OC(=O)N1C[C@@H]2C[C@H]1CN2C(=O)OC1C2CC3CC(C2)CC1C3 (stereo partly drawn) [Example 7, (1S,4S)-2-tert-butyl 5-(2-adamantyl)-2,5-diazabicyclo[2.2.1]heptane-2,5-dicarboxylate] | – | < 100 nM | –
CS(=O)(=O)N1C2CCC1CC(NC(=O)N1CC[C@@H](Nc3ccc(C#N)cn3)C1)C2 (stereo partly drawn) [Example 106, (3R)-3-(5-cyanopyridin-2-ylamino)-N-(8-(methylsulfonyl)-8-azabicyclo[3.2.1]octan-3-yl)pyrrolidine-1-carboxamide] | 3.9% | > 100 nM | –
O=C(NC1CC1)c1ccc2nc(N[C@@H]3CCN(C(=O)O[C@H]4C5CC6CC4C[C@](O)(C6)C5)C3)sc2c1 [Example 103, (R)-(trans-1-hydroxy-4-adamantyl) 3-(6-(cyclopropylcarbamoyl)benzo[d]thiazol-2-ylamino)pyrrolidine-1-carboxylate] | 88.8% | < 100 nM | –
N#Cc1cnc(N[C@@H]2CCN(C(=O)O[C@H]3C4CC5C[C@@H]3C[C@](C(N)=O)(C5)C4)C2)s1 [Example 72, (3R) (1-carbamoyl-4-adamantyl) 3-(5-cyanothiazol-2-ylamino)pyrrolidine-1-carboxylate] | 97.3% | < 100 nM | 97.3%
CN(c1ccc(C(F)(F)F)cn1)C1CCN(C(=O)O[C@H]2C3CC4CC2C[C@](C(N)=O)(C4)C3)C1 (stereo partly drawn) [Example 43, (trans-1-carbamoyl-4-adamantyl) 3-(methyl(5-(trifluoromethyl)pyridin-2-yl)amino)pyrrolidine-1-carboxylate] | 102% | < 100 nM | –
CC(C)(C)OC(=O)NC1(c2ccccc2)CCN(C(=O)OC2C3CC4CC(C3)CC2C4)C1 (stereo not drawn) [Example 13, (2-adamantyl) 3-(tert-butoxycarbonylamino)-3-phenylpyrrolidine-1-carboxylate] | 87.7% | < 100 nM | –
NC(=O)C12CC3CC(C1)C(OC(=O)N1CC[C@@H](Nc4ccc(F)cn4)C1)C(C3)C2 (stereo partly drawn) [Example 115] | 95.2% | < 100 nM | –
N#Cc1cncc(N[C@@H]2CCN(C(=O)O[C@H]3C4CC5CC3C[C@](O)(C5)C4)C2)n1 [Example 81, (R)-(trans-1-hydroxy-4-adamantyl) 3-(6-cyanopyrazin-2-ylamino)pyrrolidine-1-carboxylate] | 54.4% | < 100 nM | –
O=C(O[C@H]1C2CC3CC1C[C@](O)(C3)C2)N1CC[C@@H](Nc2ncnc3ccccc23)C1 [Example 85, (R)-(trans-1-hydroxy-4-adamantyl) 3-(quinazolin-4-ylamino)pyrrolidine-1-carboxylate] | 64% | < 100 nM | –
N#Cc1ccc(N2CCC3CN(C(=O)O[C@H]4C5CC6CC4C[C@](C(N)=O)(C6)C5)CC32)nc1 (stereo partly drawn) [Example 76, (trans-1-carbamoyl-4-adamantyl) 1-(5-cyanopyridin-2-yl)hexahydropyrrolo[3,4-b]pyrrole-5(1H)-carboxylate] | 97.9% | < 100 nM | 101%
O=C(O[C@H]1C2CC3CC1C[C@](O)(C3)C2)N1CC[C@@H](Nc2ncc(Cl)cc2[N+](=O)[O-])C1 [Example 93, (R)-(trans-1-hydroxy-4-adamantyl) 3-(5-chloro-3-nitropyridin-2-ylamino)pyrrolidine-1-carboxylate] | – | < 100 nM | –
CC(C)(C)OC(=O)NC1(C(F)(F)F)CCN(C(=O)O[C@H]2C3CC4CC2C[C@](C(N)=O)(C4)C3)C1 (stereo partly drawn) [Example 113, (trans-1-carbamoyl-4-adamantyl) 3-(tert-butoxycarbonylamino)-3-(trifluoromethyl)pyrrolidine-1-carboxylate] | 92% | < 100 nM | –
O=C(O)c1cnc(N[C@@H]2CCN(C(=O)O[C@H]3C4CC5CC3C[C@](O)(C5)C4)C2)nc1 [Example 108, 2-((R)-1-((trans-1-hydroxy-4-adamantyloxy)carbonyl)pyrrolidin-3-ylamino)pyrimidine-5-carboxylic acid] | 14.2% | > 100 nM | –
NC(=O)c1cnc(N[C@@H]2CCN(C(=O)O[C@H]3C4CC5CC3C[C@](O)(C5)C4)C2)c(Cl)c1 [Example 92, (R)-(trans-1-hydroxy-4-adamantyl) 3-(5-carbamoyl-3-chloropyridin-2-ylamino)pyrrolidine-1-carboxylate] | 60.2% | < 100 nM | –
CC(C)(C)OC(=O)NC1(c2ccccc2)CCN(C(=O)NC2C3CC4CC(C3)CC2C4)C1 (stereo not drawn) [Example 60, tert-butyl 1-(2-adamantylcarbamoyl)-3-phenylpyrrolidin-3-ylcarbamate] | – | < 100 nM | 83.3%
O=C(NC1CC1)c1cnc(N[C@@H]2CCN(C(=O)O[C@H]3C4CC5CC3C[C@](O)(C5)C4)C2)nc1 [Example 112, (R)-(trans-1-hydroxy-4-adamantyl) 3-(5-(cyclopropylcarbamoyl)pyrimidin-2-ylamino)pyrrolidine-1-carboxylate] | 33.3% | > 100 nM | –
CNC(=O)c1cnc(N[C@@H]2CCN(C(=O)O[C@H]3C4CC5CC3C[C@](O)(C5)C4)C2)nc1 [Example 110, (R)-(trans-1-hydroxy-4-adamantyl) 3-(5-(methylcarbamoyl)pyrimidin-2-ylamino)pyrrolidine-1-carboxylate] | 32.2% | > 100 nM | –
CC1(Nc2ccc(C#N)cn2)CCN(C(=O)O[C@H]2C3CC4CC2C[C@](C(N)=O)(C4)C3)C1 (stereo partly drawn) [Example 69, (trans-1-carbamoyl-4-adamantyl) 3-(5-cyanopyridin-2-ylamino)-3-methylpyrrolidine-1-carboxylate] | 98.7% | < 100 nM | –
N#Cc1cnc(N[C@@H]2CCN(C(=O)O[C@H]3C4CC5CC3C[C@](O)(C5)C4)C2)s1 [Example 82, (R)-(trans-1-hydroxy-4-adamantyl) 3-(5-cyanothiazol-2-ylamino)pyrrolidine-1-carboxylate] | 86.6% | < 100 nM | –
N#Cc1ccc(N[C@@H]2CCN(C(=O)OC3C4CC5CC3CC(C(=O)NC3CC3)(C5)C4)C2)nc1 (single isomer, unassigned) [Example 118 Isomer 1] | 9.1% | > 100 nM | –
CN(C)C(=O)c1cccnc1N[C@@H]1CCN(C(=O)O[C@H]2C3CC4CC2C[C@](O)(C4)C3)C1 [Example 89, (R)-(trans-1-hydroxy-4-adamantyl) 3-(3-(dimethylcarbamoyl)pyridin-2-ylamino)pyrrolidine-1-carboxylate] | 39.1% | > 100 nM | –
CC(C)COC(=O)N[C@@H]1CCN(C(=O)NC2C3CC4CC(C3)CC2C4)C1 (stereo partly drawn) [Example 50, (R)-isobutyl 1-((2-adamantyl)carbamoyl)pyrrolidin-3-ylcarbamate] | – | < 100 nM | 92.9%

Reference: patent US8828985B2, “Carbamate and urea inhibitors of 11-beta-hydroxysteroid dehydrogenase 1” (Vitae Pharmaceuticals, Inc., priority 2008, dated 2014)
